Results published in US20020049151A1, “Therapeutic approaches to diseases by suppression of the NURR subfamily of nuclear transcription factors” (priority 2000, published 2002).
Entries after “also recorded” stand apart in the source; their conditions may differ.

Test system: NURR1 mRNA
Assay: Northern blot of NURR1 mRNA in primary synoviocytes
Format: cell-based, human
Details: for NURR1 mRNA levels after stimulation: 25 μM forskolin, 20 ng/ml PMA, 10 ng/ml TNFα, IL-1β, IL-6, 1 μM PGE2, CRH
Experimental: Regulation of gene expression by the protein kinase A and C pathways represent important signaling events in RA synoviocytes (Ben-Av et al., 1995; Crofford et al., 1994; Firestein and Manning, 1999). […] To investigate the involvement of the protein kinase C signaling pathways in NURR regulation, synoviocytes were treated with phorbal myristic acetate (PMA). […] In contrast, dexamethasone had little effect on forskolin- or PMA-induced NUR77 levels.
In FIG. 4 total RNA was extracted and northern blot analysis was performed. Filters were hybridized with a cDNA for NURR1 or NUR77 and also with GAPDH to control for loading and transfer. Synovial explants were left untreated [C] or incubated with 10^−8M CRH for the indicated times. (FIG. 4A) Confluent monolayers of primary synoviocytes were left untreated [C] or pretreated with 10^−8M dexamethasone (DEX) for 2 h prior to the addition of 25μM forskolin (FOR) or 20 ng/ml of phorbal myristic acetate (PMA). (FIG. 4B)
Therefore the pathological importance of the NURR transcription factors in inflammatory joint disease was further examined by determining the ability of pro-inflammatory agonists to regulate NURR transcript levels in primary synoviocytes and synovium explant tissue (FIG. 6).
For FIG. 6 each membrane was reprobed with a GAPDH cDNA to control for loading and transfer. NURR1 mRNA levels were measured by northern analysis using total RNA extracted from synoviocytes left untreated [C] or cultured for the time indicated with (A) TNFα (10 ng/ml) in the presence or absence of pre-treatment with 10^−8M dexamethasone (DEX). (B) IL-1β(10 ng/ml) in the presence or absence of pretreatment with 2 μM indomethacin (INDO) or 10^−8M DEX. (C) or synovial explants cultured with IL-6 (10 ng/ml). (D) 1 μM PGE2. (E) 25 μM forskolin (FOR) or […] for 1h in the absence or presence of 5 µg/ml cycloheximide (CHX).
Northern analysis of primary RA synoviocytes were untreated (lane 1) or treated for 1 hour with TNFα (lane 2), IL-1β (lane 3), and PGE2 (lane 4). TNFα and IL-1β were used at a concentration of 10 ng/mL and PGE2 was at a concentration of 10^-6 M.
Total RNA was isolated from cultured primary synoviocytes or synovial explants. RNA was quantitated by UV absorption and 10 μg of total RNA were electrophoresed on a standard northern gel and transferred to nylon membrane (BioRad, Richmond, Calif.). NURR1 and NUR77 cDNA probes (Murphy and Conneely, 1997), spanning the amino terminal region to avoid cross-hybridization, were radiolabeled to a high specific activity using [α-^32P] dCTP and a random primer labeling system (Promega, Madison, Wis.). Blots were exposed to film at −80° C. using intensifying screens and autoradiographic intensity was quantitated using an imaging densitometer.

Compound | NURR1 mRNA levels after stimulation | effect in stimulating NURR1 mRNA compared with the other agonists (PGE2 1 μM, 10^-6 M)
CCCCC[C@H](O)/C=C/[C@H]1[C@H](O)CC(=O)[C@@H]1C/C=C\CCCC(=O)O [PGE2, reference compound] | rapid and marked increase | most potent and sustained effect
IL-1β: pro-inflammatory cytokine | rapid and marked increase | –
IL-6: pro-inflammatory cytokine | did not significantly induce | –
TNFα | rapid and marked increase; also recorded: increased | –
